Experimental data published in patent publication US9505762B2, “Purine derivatives as CB2 receptor agonists” (Hoffmann-La Roche Inc., priority 2013, dated 2016).
pEC50: −log10 of the molar value.

Legend:
human CB2 receptors = human CB2 receptors (Homo sapiens (Human), UniProt P34972); experiment: functional cAMP assay, CB2; format: cell-based; settings: CHO cells expressing human CB2
human CB1 receptors = human CB1 receptors (Homo sapiens (Human), UniProt P21554); experiment: functional cAMP assay, CB1; format: cell-based; settings: CHO cells expressing human CB1
Sequence of human CB1 receptors (P21554 whole entry): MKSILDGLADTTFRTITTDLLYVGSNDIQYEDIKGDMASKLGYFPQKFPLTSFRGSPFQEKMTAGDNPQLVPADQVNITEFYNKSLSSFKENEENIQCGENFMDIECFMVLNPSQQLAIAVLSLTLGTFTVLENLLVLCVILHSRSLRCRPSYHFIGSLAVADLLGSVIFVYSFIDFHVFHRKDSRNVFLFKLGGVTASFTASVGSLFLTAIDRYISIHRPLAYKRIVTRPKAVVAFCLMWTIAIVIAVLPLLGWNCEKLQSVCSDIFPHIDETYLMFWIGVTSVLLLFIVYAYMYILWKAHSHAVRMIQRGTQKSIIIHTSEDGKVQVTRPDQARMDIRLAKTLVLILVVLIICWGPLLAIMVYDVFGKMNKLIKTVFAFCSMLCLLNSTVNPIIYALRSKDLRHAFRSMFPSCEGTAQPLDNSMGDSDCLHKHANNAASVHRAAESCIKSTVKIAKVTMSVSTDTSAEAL

Sequence of human CB2 receptors (P34972 whole entry): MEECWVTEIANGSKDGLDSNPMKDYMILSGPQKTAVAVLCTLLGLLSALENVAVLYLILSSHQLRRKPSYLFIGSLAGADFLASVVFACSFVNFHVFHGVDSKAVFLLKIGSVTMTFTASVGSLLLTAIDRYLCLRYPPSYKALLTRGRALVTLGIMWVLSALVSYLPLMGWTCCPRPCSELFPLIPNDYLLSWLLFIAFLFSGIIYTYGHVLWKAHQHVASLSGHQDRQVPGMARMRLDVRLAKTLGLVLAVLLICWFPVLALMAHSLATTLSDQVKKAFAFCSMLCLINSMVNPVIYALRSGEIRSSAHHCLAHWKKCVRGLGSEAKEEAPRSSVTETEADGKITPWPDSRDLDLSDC

| Structure (SMILES) | pEC50 (human CB2 receptors) | pEC50 (human CB1 receptors) |
| --- | --- | --- |
| CC(C)(C)c1nc(N2CCC(O)C2)c2ncn(Cc3cccnc3Cl)c2n1 (centres unmarked) [Example 33, 1-[2-tert-butyl-9-[(2-chloropyridin-3-yl)methyl]purin-6-yl]pyrrolidin-3-ol] | 8.47 | < 5.00 |
| CC(C)(C)c1nc(N2CCC(F)(F)C2)c2ncn(Cc3ccc(Cl)cc3)c2n1 [Example 1, 2-Tert-Butyl-9-[(4-Chlorophenyl)Methyl]-6-(3,3-Difluoropyrrolidin-1-Yl)Purine] | 7.94 | < 5.00 |
| Cc1nonc1Cn1cnc2c(N3CCC(C)(O)C3)nc(OCC(C)(C)C)nc21 (centres unmarked) [Example 135, 1-[2-(2,2-dimethylpropoxy)-9-[(4-methyl-1,2,5-oxadiazol-3-yl)methyl]purin-6-yl]-3-methylpyrrolidin-3-ol] | 7.51 | < 5.00 |
| CC(C)(C)Nc1nc(N2CC[C@H](O)C2)c2ncn(Cc3ccccc3Cl)c2n1 [Example 116, (3S)-1-[2-(tert-butylamino)-9-[(2-chlorophenyl)methyl]purin-6-yl]pyrrolidin-3-ol] | 7.92 | < 5.00 |
| CC(C)(C)COc1nc(N2CCC(C)(O)C2)c2ncn(Cc3ccccc3Cl)c2n1 (centres unmarked) [Example 131, 1-[9-[(2-chlorophenyl)methyl]-2-(2,2-dimethylpropoxy)purin-6-yl]-3-methyl pyrrolidin-3-ol] | 7.18 | < 5.00 |
| CC(C)(C)c1nc(N2CCC[C@@H]2C#N)c2ncn(Cc3nnnn3C3CC3)c2n1 [Example 147, (2R)-1-[2-tert-butyl-9-[(1-cyclopropyltetrazol-5-yl)methyl]purin-6-yl]pyrrolidine-2-carbonitrile] | 6.76 | < 5.00 |
| COCCn1cnc2c(N3CC[C@H](O)C3)nc(C(C)(C)C)nc21 [Example 94, (3S)-1-[2-tert-butyl-9-(2-methoxyethyl)purin-6-yl]pyrrolidin-3-ol] | 6.36 | < 5.00 |
| Cc1noc(Cn2cnc3c(N4CCC(O)C4)nc(C(C)(C)C)nc32)n1 (centres unmarked) [Example 29, 1-[2-tert-butyl-9-[(3-methyl-1,2,4-oxadiazol-5-yl)methyl]purin-6-yl]pyrrolidin-3-ol] | 6.37 | < 5.00 |
| CC(C)(C)c1nc(N2CCC[C@@H]2C#N)c2ncn(Cc3ncccc3Cl)c2n1 [Example 163, (2R)-1-[2-tert-Butyl-9-[(3-chloropyridin-2-yl)methyl]purin-6-yl]pyrrolidine-2-carbonitrile] | 8.16 | < 5.00 |
| CC(C)(C)Nc1nc(N2CCC(F)(F)C2)c2ncn(Cc3ccccc3Cl)c2n1 [Example 107, N-tert-butyl-9-[(2-chlorophenyl)methyl]-6-(3,3-difluoropyrrolidin-1-yl)purin-2-amine] | 8.09 | < 5.00 |
| CC(C)(C)c1nc(N2CCC(O)C2)c2ncn(Cc3cccc(Cl)c3)c2n1 (centres unmarked) [Example 25, 1-[2-tert-butyl-9-[(3-chlorophenyl)methyl]purin-6-yl]pyrrolidin-3-ol] | 7.23 | < 5.00 |
| CC(C)(C)c1nc(N2CCC(O)C2)c2ncn(CCC(F)(F)F)c2n1 (centres unmarked) [Example 45, 1-[2-tert-butyl-9-(3,3,3-trifluoropropyl)purin-6-yl]pyrrolidin-3-ol] | 7.30 | < 5.00 |
| CC(C)(C)c1nc(N2CCC(F)(F)C2)c2ncn(CCc3cccnc3)c2n1 [Example 23, 2-tert-butyl-6-(3,3-difluoropyrrolidin-1-yl)-9-(2-pyridin-3-ylethyl)purine] | 8.36 | < 5.00 |
| CC(C)(C)c1nc(N2CCC(O)C2)c2ncn(Cc3c[nH]nc3C(F)(F)F)c2n1 (centres unmarked) [Example 44, 1-[2-tert-butyl-9-[[3-(trifluoromethyl)-1H-pyrazol-4-yl]methyl]purin-6-yl]pyrrolidin-3-ol] | 7.83 | < 5.00 |
| CC(C)(C)c1nc(N2CC[C@H](O)C2)c2ncn(CCC(F)(F)F)c2n1 [Example 99, (3S)-1-[2-tert-butyl-9-(3,3,3-trifluoropropyl)purin-6-yl]pyrrolidin-3-ol] | 6.64 | < 5.00 |
| CC1(O)CCN(c2nc(C(C)(C)C)nc3c2ncn3CCC(F)(F)F)C1 (centres unmarked) [Example 102, 1-[2-tert-butyl-9-(3,3,3-trifluoropropyl)purin-6-yl]-3-methylpyrrolidin-3-ol] | 6.87 | < 5.00 |
| CC(=O)N[C@H]1CCN(c2nc(C(C)(C)C)nc3c2ncn3CCC(F)(F)F)C1 [Example 103, N-[(3S)-1-[2-tert-butyl-9-(3,3,3-trifluoropropyl)purin-6-yl]pyrrolidin-3-yl]acetamide] | 6.68 | < 5.00 |
| CC(C)(C)COc1nc(N2CCC(F)(F)C2)c2nc[nH]c2n1 [Example 151, 6-(3,3-difluoropyrrolidin-1-yl)-2-(2,2-dimethylpropoxy)-9H-purine] | 7.54 | < 5.00 |
| CC(C)(C)COc1nc(N2CCC(F)(F)C2)c2ncn(Cc3ccccc3Cl)c2n1 [Example 124, 9-[(2-chlorophenyl)methyl]-6-(3,3-difluoropyrrolidin-1-yl)-2-(2,2-dimethylpropoxy) purine] | 8.57 | < 5.00 |

| Structure (SMILES) | pEC50 (human CB2 receptors) | pEC50 (human CB1 receptors) |
| --- | --- | --- |
| CC(=O)N[C@H]1CCN(c2nc(C(C)(C)C)nc3c2ncn3Cc2n[nH]cc2C(F)(F)F)C1 [Example 77, N—[(S)-1-[2-tert-butyl-9-[[4-(trifluoromethyl)-1H-pyrazol-3-yl]methyl]purin-6-yl]pyrrolidin-3-yl]acetamide] | 6.69 | < 5.00 |
| CC(C)(C)c1nc(N2CC[C@H](O)C2)c2ncn(Cc3nnnn3CC3CC3)c2n1 [Example 164, (3S)-1-[2-tert-butyl-9-[[1-(cyclopropylmethyl)tetrazol-5-yl]methyl]purin-6-yl]pyrrolidin-3-ol] | 7.68 | < 5.00 |
| CC(C)(C)c1nc(N2CCC3(COC3)C2)c2ncn(Cc3ccccc3Cl)c2n1 [Example 56, 7-[2-tert-butyl-9-[(2-chlorophenyl)methyl]purin-6-yl]-2-oxa-7-azaspiro[3.4]octane] | 7.25 | < 5.00 |
| CC(C)(C)c1nc(N2CCC(O)C2)c2ncn(Cc3ccccc3Cl)c2n1 (centres unmarked) [Example 22, 1-[2-tert-butyl-9-[(2-chlorophenyl)methyl]purin-6-yl]pyrrolidin-3-ol] | 8.24 | < 5.00 |
| Cc1nonc1Cn1cnc2c(N3CCC(F)(F)C3)nc(NC(C)(C)C)nc21 [Example 111, N-tert-butyl-6-(3,3-difluoropyrrolidin-1-yl)-9-[(4-methyl-1,2,5-oxadiazol-3-yl)methyl]purin-2-amine] | 7.83 | < 5.00 |
| CC(C)(C)c1nc(N2CCSC2)c2ncn(Cc3ncccc3Cl)c2n1 [Example 161, 3-[2-tert-butyl-9-[(3-chloropyridin-2-yl)methyl]purin-6-yl]-1,3-thiazolidine] | 7.90 | < 5.00 |
| CC(C)(C)c1nc(N2CCC(O)C2)c2ncn(Cc3ncccc3Cl)c2n1 (centres unmarked) [Example 32, 1-[2-tert-butyl-9-[(3-chloropyridin-2-yl)methyl]purin-6-yl]pyrrolidin-3-ol] | 8.47 | < 5.00 |
| CC(C)(C)c1nc(N2CC[C@H](O)C2)c2ncn(Cc3cccnc3Cl)c2n1 [Example 91, (3S)-1-[2-tert-butyl-9-[(2-chloropyridin-3-yl)methyl]purin-6-yl]pyrrolidin-3-ol] | 8.77 | < 5.00 |
| Cc1nonc1Cn1cnc2c(N3CCC(F)(F)C3)nc(OCC(C)(C)C)nc21 [Example 140, 3-[[6-(3,3-difluoropyrrolidin-1-yl)-2-(2,2-dimethylpropoxy)purin-9-yl]methyl]-4-methyl-1,2,5-oxadiazole] | 8.04 | < 5.00 |
| CC(C)(C)c1nc(N2CCC(O)C2)c2ncn(Cc3ccc(F)cc3Cl)c2n1 (centres unmarked) [Example 42, 1-[2-tert-butyl-9-[(2-chloro-4-fluorophenyl)methyl]purin-6-yl]pyrrolidin-3-ol] | 8.43 | < 5.00 |
| CC(C)(C)c1nc(N2CCC(F)(F)C2)c2ncn(CC(=O)c3ccccc3Cl)c2n1 [Example 17, 2-[2-tert-butyl-6-(3,3-difluoropyrrolidin-1-yl)purin-9-yl]-1-(2-chlorophenyl)ethanone] | 8.46 | < 5.00 |
| CC1(O)CCN(c2nc(NC(C)(C)C)nc3c2ncn3Cc2ccccc2C(F)(F)F)C1 (centres unmarked) [Example 121, 1-[2-(tert-butylamino)-9-[[2-(trifluoromethyl)phenyl]methyl]purin-6-yl]-3-methylpyrrolidin-3-ol] | 7.38 | < 5.00 |
| CC(C)(C)c1nc(N2CCC(O)C2)c2ncn(CCc3ccccc3)c2n1 (centres unmarked) [Example 38, 1-[2-tert-butyl-9-(2-phenylethyl)purin-6-yl]pyrrolidin-3-ol] | 7.69 | < 5.00 |
| CC(C)(C)c1nc(N2CCC(F)(F)C2)c2ncn(Cc3nnnn3C3CC3)c2n1 [Example 156, 2-tert-butyl-9-[(1-cyclopropyltetrazol-5-yl)methyl]-6-(3,3-difluoropyrrolidin-1-yl)purine] | 8.04 | < 5.00 |
| CC(C)(C)COc1nc(N2CCC(C)(O)C2)c2ncn(Cc3ccccc3C(F)(F)F)c2n1 (centres unmarked) [Example 132, 1-[2-(2,2-dimethylpropoxy)-9-[[2-(trifluoromethyl)phenyl]methyl]purin-6-yl]-3-methylpyrrolidin-3-ol] | 7.66 | < 5.00 |
| CC(C)(C)c1nc(N2CC[C@H](O)[C@H]2CO)c2ncn(Cc3ncccc3Cl)c2n1 [Example 159, (2R,3S)-1-[2-tert-butyl-9-[(3-chloropyridin-2-yl)methyl]purin-6-yl]-2-(hydroxymethyl)pyrrolidin-3-ol] | 6.23 | < 5.00 |
| CC(C)(C)Nc1nc(N2CCC(F)(F)C2)c2ncn(CCC(F)(F)F)c2n1 [Example 110, N-tert-butyl-6-(3,3-difluoropyrrolidin-1-yl)-9-(3,3,3-trifluoropropyl)purin-2-amine] | 7.74 | < 5.00 |
| CC1(O)CCN(c2nc(C(C)(C)C)nc3c2ncn3Cc2cccc(Cl)c2)C1 (centres unmarked) [Example 65, 1-[2-tert-butyl-9-[(3-chlorophenyl)methyl]purin-6-yl]-3-methylpyrrolidin-3-ol] | 7.04 | < 5.00 |
